Usually IC50 stands for the concentration that gives 50% inhibition.

Assay [1] has as its target dipeptidyl peptidase-IV enzyme (DPP-4) (Homo sapiens (Human), UniProt P27487). Put plainly: continuous fluorometric assay with substrate Gly-Pro-AMC (DPP-4 inhibition). Type of assay: biochemical. The conditions noted are these: soluble human DPP-4, 50 μM Gly-Pro-AMC, pH 7.5, room temperature.
Protocol: Inhibition constants are determined as follows. A continuous fluorometric assay is employed with the substrate Gly-Pro-AMC, which is cleaved by DPP-4 to release the fluorescent AMC leaving group. […] A typical reaction contains approximately 50 pM enzyme, 50 μM Gly-Pro-AMC, and buffer (100 mM HEPES, pH 7.5, 0.1 mg/ml BSA) in a total reaction volume of 100 μL. Liberation of AMC is monitored continuously in a 96-well plate fluorometer using an excitation wavelength of 360 nm and an emission wavelength of 460 nm. Under these conditions, approximately 0.8 μM AMC is produced in 30 minutes at 25 degrees C. The enzyme used in these studies was soluble (transmembrane domain and cytoplasmic extension excluded) human protein produced in a baculovirus expression system (Bac-To-Bac, Gibco BRL). […] To measure the dissociation constants for compounds, solutions of inhibitor in DMSO were added to reactions containing enzyme and substrate (final DMSO concentration is 1%). All experiments were conducted at room temperature using the standard reaction conditions described above. To determine the dissociation constants (Ki), reaction rates were fit by non-linear regression to the Michaelis-Menton equation for competitive inhibition.
A further assay deals with cardiac allograft. As to conditions: rats; survival doubled from day 7; cited from earlier work.
The next assay relates to hematopoiesis. The conditions noted are these: mouse, cyclophosphamide-induced neutropenia; cited from earlier work.
For a further assay, the target named is DPP-4 (Homo sapiens (Human), UniProt P27487). The conditions noted are these: cited from earlier work.
DPP-4, sequence (P27487 39-766, species assumed): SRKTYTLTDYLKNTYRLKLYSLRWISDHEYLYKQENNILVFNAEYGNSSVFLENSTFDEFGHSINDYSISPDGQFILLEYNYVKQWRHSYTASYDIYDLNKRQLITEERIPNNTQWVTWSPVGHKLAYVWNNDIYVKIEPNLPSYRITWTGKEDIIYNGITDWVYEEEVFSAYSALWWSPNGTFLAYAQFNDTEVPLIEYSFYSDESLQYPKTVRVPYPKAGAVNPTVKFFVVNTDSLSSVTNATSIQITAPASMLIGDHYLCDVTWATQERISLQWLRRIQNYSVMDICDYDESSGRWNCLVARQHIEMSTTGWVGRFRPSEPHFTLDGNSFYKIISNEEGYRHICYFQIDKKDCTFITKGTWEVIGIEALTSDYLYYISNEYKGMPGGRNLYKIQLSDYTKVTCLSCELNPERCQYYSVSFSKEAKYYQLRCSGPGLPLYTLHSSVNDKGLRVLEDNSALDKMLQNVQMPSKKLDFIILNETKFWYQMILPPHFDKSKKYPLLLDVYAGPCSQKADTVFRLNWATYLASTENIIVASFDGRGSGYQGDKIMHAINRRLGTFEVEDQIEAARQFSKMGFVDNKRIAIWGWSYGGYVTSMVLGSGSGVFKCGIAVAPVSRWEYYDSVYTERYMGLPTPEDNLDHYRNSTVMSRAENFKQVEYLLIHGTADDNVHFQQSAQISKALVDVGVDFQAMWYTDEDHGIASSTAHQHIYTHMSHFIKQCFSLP

Structures are written as SMILES.

dipeptidyl peptidase-IV enzyme (DPP-4), sequence (P27487 29-766): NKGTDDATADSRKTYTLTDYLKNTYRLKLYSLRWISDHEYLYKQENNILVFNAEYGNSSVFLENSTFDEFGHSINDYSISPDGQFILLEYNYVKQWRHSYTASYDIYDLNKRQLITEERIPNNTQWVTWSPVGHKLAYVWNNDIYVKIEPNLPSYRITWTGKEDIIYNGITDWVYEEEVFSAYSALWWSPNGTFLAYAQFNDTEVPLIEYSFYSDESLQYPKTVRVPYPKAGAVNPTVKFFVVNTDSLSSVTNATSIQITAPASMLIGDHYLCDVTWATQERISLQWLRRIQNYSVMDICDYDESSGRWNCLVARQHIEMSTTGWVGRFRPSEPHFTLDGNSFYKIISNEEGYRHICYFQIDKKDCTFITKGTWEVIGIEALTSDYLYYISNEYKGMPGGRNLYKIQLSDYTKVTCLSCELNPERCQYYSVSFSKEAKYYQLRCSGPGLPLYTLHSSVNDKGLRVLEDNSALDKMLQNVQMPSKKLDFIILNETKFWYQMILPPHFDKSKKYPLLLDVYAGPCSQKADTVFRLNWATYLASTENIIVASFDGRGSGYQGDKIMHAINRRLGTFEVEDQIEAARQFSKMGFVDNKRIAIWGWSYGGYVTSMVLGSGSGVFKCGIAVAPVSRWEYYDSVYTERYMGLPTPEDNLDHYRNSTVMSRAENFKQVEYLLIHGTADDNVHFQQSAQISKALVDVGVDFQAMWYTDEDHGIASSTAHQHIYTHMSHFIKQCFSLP

As to `Cc1ccc(S(=O)(=O)N=S(C)(=O)n2cc3c(n2)CN([C@H]2CO[C@H](c4cc(F)ccc4F)[C@@H](N)C2)C3)cc1` (stereo partly drawn) [Example 1], inhibition in assay [1] was half-maximal at 18.5 nM (IC50). Turning to `C[C@]1(N2Cc3cn(S(C)(=O)=O)nc3C2)CO[C@H](c2cc(F)ccc2F)[C@@H](N)C1` [Example 3], in assay [1], inhibition was half-maximal at 37 nM (IC50). In assay [1], `C[C@]1(N2Cc3cn(S(=O)(=O)NC(=O)OCc4ccccc4)nc3C2)CO[C@H](c2cc(F)ccc2F)[C@@H](N)C1` [Example 4] came in with an IC50 of 8.8 nM.

Regarding `CC(C)N1CCC(c2ccccc2)(c2ccccc2)CC1` [Prodipine, Pro-Pro-diphenyl-phosphonate], the cardiac allograft survival in the assay on cardiac allograft is 14 day.

With `CC(C)[C@H](N)C(=O)N1CCC[C@H]1B(O)O` [Val-Boro-Pro], in the assay on hematopoiesis, the hematopoiesis entry is recorded as “stimulated hematopoiesis”. For the compound `CC[C@H](C)[C@H](N)C(=O)N1CCC[C@H]1C(=O)N[C@H](C(=O)O)[C@@H](C)CC` [diprotin A], the “degradation of GRF to GRF[3-44] in plasma” value on DPP-4 is recorded as “prevented”.

The values are drawn from patent US9156848B2, “Treating diabetes with dipeptidyl peptidase-IV inhibitors” (Merck Sharp & Dohme Corp., priority 2012, dated 2015).
